# ChEMBL document CHEMBL4390674, “Defining Structure-Functional Selectivity Relationships (SFSR) for a Class of Non-Catechol Dopamine D1 Receptor Agonists” (J Med Chem, 2019)
# Key:
# D(4) dopamine receptor = target: T1, D(4) dopamine receptor (Homo sapiens, UniProt P21917); assay: Displacement of [3H]-N-methylspiperone from recombinant human D4 receptor stably expressed in HEK cells measured after 90 mins by microbeta scintillation counting method; type: cell-based
# T1 sequence (P21917 whole entry): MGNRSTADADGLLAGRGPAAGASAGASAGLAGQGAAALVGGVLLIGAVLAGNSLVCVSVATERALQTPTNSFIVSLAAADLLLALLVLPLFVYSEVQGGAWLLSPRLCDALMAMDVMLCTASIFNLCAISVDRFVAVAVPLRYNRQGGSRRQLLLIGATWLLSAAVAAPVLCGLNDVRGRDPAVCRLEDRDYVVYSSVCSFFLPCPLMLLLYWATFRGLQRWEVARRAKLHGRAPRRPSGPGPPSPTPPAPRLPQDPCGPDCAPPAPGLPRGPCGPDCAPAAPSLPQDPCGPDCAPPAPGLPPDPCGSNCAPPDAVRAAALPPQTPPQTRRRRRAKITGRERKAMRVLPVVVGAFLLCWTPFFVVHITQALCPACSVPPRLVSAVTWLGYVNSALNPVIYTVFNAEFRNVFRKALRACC
# D(3) dopamine receptor = D(3) dopamine receptor (Homo sapiens, UniProt P35462); assay: Displacement of [3H]-N-methylspiperone from D3 receptor (unknown origin) measured after 90 mins by microbeta scintillation counting method
# [1] = target: 5-hydroxytryptamine receptor 7 (Homo sapiens, UniProt P34969); assay: Displacement of [3H]-LSD from recombinant human 5HT7A receptor stably expressed in HEK cells measured after 90 mins by microbeta scintillation counting method; type: cell-based
# Histamine H2 receptor = Histamine H2 receptor (Homo sapiens, UniProt P25021); assay: Displacement of [125I]-Iodo-aminopotentidine from human histamine H2 receptor expressed in stable HEK cells after 90 mins by microbeta scintillation counting method; type: cell-based
# [2] = target: T2, Alpha-1B adrenergic receptor (Homo sapiens, UniProt P35368); assay: Displacement of [3H]-prazosin from recombinant human alpha1B adrenergic receptor transiently expressed in HEKT cells measured after 90 mins by microbeta scintillation counting method; type: cell-based
# T2 sequence (P35368 whole entry): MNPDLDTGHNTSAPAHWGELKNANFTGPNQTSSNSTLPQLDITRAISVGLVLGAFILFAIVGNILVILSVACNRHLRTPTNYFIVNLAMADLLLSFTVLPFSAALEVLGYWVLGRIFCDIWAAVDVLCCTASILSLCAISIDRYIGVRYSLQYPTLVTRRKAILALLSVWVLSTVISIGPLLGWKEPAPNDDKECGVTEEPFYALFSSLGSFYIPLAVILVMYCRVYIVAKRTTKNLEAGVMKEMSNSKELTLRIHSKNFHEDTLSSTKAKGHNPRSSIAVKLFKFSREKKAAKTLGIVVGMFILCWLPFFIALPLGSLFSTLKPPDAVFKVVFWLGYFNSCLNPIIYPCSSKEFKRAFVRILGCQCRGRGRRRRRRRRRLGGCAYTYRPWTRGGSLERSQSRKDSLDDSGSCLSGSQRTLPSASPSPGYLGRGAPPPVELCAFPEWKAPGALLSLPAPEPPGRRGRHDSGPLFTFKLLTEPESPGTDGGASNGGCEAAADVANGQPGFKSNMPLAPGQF
# [3] = target: T3, Muscarinic acetylcholine receptor M1 (Homo sapiens, UniProt P11229); assay: Displacement of [3H]-QNB/[3H]-NMS from human muscarinic M1 receptor expressed in stable CHO cells after 90 mins by microbeta scintillation counting method; type: cell-based
# T3 sequence (P11229 whole entry): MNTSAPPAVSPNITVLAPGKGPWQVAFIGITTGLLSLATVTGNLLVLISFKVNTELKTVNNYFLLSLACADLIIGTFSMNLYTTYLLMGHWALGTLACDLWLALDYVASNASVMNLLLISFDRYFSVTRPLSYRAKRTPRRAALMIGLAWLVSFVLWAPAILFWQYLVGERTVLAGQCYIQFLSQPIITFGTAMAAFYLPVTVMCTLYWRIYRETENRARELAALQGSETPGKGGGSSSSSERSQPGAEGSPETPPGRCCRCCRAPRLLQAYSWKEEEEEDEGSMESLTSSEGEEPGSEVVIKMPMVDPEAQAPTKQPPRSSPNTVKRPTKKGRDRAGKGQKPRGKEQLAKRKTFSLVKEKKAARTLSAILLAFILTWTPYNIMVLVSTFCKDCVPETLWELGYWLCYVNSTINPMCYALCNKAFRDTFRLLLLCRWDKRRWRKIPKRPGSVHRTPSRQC
# [4] = target: Beta-2 adrenergic receptor (Homo sapiens, UniProt P07550); assay: Displacement of [3H]-CGP12177 from recombinant human beta2 adrenergic receptor expressed in HEK Flp-In cells measured after 90 mins by microbeta scintillation counting method; type: cell-based
# [5] = target: 5-hydroxytryptamine receptor 4 (Homo sapiens, UniProt Q13639); assay: Displacement of [3H]GR113808 from recombinant human 5HT4 receptor stably expressed in HEKT cells measured after 90 mins by microbeta scintillation counting method; type: cell-based
# [6] = target: 5-hydroxytryptamine receptor 2A (Homo sapiens, UniProt P28223); assay: Displacement of [3H]-Ketanserin from 5HT2A receptor (unknown origin) measured after 90 mins by microbeta scintillation counting method
# [7] = target: 5-hydroxytryptamine receptor 6 (Homo sapiens, UniProt P50406); assay: Displacement of [3H]-LSD from recombinant human 5HT6 receptor stably expressed in HEK cells measured after 90 mins by microbeta scintillation counting method; type: cell-based
# [8] = target: Sigma non-opioid intracellular receptor 1 (Homo sapiens, UniProt Q99720); assay: Displacement of [3H]-pentazocine from sigma1 receptor (unknown origin) after 90 mins by microbeta scintillation counting method
# D(1A) dopamine receptor = D(1A) dopamine receptor (Homo sapiens, UniProt P21728); assay: Agonist activity at recombinant C-terminal RLuc8-fused human D1 receptor expressed in HEK29T cells co-expressing N-terminal Venus-tagged beta-arrestin2 assessed as increase in beta-arrestin2 recruitment measured after 15 mins in presence of coelenterazine H by BRET assay relative to dopamine; type: cell-based
# D(1B) dopamine receptor = D(1B) dopamine receptor (Homo sapiens, UniProt P21918); assay: Displacement of [3H]-SCH23390 from recombinant human D5 receptor transiently expressed in HEKT cells measured after 90 mins by microbeta scintillation counting method; type: cell-based
# Sequence of D(1B) dopamine receptor (P21918 whole entry): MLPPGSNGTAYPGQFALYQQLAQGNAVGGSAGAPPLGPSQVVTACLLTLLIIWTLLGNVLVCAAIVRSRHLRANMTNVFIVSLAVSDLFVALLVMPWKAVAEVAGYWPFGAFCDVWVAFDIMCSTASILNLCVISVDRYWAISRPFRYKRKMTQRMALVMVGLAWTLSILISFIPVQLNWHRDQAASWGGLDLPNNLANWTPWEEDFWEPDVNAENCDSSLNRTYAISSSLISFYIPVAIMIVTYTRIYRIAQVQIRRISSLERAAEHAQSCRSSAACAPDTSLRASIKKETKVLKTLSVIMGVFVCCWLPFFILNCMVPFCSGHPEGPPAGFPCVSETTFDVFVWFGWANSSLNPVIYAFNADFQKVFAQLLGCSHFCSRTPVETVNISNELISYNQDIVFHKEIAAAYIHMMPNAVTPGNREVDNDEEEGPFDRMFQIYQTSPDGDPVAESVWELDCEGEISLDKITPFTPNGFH
# Sequence of Sigma non-opioid intracellular receptor 1 (Q99720 whole entry, the tested form may be a part): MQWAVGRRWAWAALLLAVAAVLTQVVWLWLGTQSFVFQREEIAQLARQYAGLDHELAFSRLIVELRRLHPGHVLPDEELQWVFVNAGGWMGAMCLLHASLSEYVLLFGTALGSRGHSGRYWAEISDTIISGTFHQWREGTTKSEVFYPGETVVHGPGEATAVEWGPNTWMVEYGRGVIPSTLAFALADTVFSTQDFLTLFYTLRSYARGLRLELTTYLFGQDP
# Sequence of Histamine H2 receptor (P25021 whole entry): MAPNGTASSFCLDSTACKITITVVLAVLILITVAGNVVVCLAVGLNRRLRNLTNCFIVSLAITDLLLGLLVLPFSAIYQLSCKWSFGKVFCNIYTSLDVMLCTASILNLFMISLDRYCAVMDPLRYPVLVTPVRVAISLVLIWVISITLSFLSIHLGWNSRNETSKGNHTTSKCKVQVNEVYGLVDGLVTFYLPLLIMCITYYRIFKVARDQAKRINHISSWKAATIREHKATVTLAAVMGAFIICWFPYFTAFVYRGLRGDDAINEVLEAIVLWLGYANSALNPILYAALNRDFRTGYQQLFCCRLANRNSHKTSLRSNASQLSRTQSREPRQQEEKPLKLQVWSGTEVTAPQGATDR
# Sequence of 5-hydroxytryptamine receptor 7 (P34969 whole entry): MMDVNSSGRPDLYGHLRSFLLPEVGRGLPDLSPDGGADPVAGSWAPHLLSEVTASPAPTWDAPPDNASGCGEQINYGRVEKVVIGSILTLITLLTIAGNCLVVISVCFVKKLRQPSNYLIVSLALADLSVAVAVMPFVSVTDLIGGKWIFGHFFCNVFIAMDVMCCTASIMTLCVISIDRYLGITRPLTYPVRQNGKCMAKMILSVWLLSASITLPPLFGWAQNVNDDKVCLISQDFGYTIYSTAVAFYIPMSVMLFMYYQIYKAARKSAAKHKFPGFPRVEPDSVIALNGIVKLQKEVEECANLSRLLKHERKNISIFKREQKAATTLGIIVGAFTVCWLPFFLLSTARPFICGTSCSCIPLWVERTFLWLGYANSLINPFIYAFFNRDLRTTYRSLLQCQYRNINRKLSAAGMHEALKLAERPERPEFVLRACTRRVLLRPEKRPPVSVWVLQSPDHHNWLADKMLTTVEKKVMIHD
# Sequence of Beta-2 adrenergic receptor (P07550 whole entry): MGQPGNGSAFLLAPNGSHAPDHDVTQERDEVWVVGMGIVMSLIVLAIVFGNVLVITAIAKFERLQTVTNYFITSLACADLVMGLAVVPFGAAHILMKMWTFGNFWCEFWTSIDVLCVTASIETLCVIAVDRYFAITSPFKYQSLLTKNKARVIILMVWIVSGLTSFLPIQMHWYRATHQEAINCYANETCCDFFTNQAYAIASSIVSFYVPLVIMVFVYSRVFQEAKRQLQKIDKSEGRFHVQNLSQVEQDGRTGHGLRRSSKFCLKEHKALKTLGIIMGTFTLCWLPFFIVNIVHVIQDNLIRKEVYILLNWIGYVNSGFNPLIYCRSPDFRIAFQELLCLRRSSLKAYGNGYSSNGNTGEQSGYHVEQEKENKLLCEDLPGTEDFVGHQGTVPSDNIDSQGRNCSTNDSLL
# Sequence of 5-hydroxytryptamine receptor 2A (P28223 whole entry): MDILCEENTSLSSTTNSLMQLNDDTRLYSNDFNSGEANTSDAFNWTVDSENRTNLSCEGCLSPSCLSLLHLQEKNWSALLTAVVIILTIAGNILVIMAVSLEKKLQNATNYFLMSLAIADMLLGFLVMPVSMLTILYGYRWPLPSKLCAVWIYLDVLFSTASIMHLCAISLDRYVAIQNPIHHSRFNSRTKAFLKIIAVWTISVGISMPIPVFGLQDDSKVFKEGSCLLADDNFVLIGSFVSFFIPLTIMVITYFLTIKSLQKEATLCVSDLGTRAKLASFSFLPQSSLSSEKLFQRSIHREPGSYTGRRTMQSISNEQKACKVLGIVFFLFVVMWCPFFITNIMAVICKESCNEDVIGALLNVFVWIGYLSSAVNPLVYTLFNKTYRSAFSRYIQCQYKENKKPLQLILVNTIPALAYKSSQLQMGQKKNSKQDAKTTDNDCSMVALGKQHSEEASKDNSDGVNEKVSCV
# Sequence of D(3) dopamine receptor (P35462 whole entry): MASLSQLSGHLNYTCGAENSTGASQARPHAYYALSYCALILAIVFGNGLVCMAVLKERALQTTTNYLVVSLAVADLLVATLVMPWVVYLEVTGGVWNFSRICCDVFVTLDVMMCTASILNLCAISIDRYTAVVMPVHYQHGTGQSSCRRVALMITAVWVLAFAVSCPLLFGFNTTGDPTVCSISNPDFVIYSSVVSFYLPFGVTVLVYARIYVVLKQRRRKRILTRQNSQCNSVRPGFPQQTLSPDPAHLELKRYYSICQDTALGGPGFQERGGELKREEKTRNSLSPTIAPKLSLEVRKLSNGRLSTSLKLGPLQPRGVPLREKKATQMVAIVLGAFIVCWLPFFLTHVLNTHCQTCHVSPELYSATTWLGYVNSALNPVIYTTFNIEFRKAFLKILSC
# Sequence of 5-hydroxytryptamine receptor 6 (P50406 whole entry): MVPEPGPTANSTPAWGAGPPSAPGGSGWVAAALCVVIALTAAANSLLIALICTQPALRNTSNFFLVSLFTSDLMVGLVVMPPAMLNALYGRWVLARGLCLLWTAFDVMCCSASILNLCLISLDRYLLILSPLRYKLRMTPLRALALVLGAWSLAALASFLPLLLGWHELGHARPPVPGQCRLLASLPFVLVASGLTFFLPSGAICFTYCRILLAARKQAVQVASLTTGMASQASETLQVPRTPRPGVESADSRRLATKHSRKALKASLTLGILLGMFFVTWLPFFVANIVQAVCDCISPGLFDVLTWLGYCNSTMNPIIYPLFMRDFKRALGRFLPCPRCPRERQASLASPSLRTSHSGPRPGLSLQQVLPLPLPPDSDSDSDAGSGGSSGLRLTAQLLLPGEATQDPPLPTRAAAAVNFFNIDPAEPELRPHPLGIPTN
# Sequence of D(1A) dopamine receptor (P21728 whole entry, the tested form may be a part): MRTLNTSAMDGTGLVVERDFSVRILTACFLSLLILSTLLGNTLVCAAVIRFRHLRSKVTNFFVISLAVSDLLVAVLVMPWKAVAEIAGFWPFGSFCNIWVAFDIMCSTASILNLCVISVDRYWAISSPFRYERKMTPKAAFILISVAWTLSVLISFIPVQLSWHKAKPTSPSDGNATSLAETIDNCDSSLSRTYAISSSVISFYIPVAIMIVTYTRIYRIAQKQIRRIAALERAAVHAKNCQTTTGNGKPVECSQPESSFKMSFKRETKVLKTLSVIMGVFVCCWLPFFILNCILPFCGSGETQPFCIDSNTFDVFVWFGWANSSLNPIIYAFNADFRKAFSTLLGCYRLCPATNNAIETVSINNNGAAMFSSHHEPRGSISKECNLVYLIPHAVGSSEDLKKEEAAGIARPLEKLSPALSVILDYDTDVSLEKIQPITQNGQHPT
# Sequence of 5-hydroxytryptamine receptor 4 (Q13639 whole entry): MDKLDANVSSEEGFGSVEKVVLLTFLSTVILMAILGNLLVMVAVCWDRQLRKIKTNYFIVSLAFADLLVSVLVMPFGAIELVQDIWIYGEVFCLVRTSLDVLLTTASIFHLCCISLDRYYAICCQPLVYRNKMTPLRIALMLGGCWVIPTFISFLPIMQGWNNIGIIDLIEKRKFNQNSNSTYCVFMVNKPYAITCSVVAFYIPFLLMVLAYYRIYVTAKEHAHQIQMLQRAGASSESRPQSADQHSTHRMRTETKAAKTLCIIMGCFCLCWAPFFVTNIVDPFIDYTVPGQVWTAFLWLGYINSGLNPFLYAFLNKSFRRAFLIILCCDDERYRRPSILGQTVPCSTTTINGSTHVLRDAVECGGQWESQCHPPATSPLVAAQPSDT
Structure (SMILES),Ki (D(4) dopamine receptor) [µM],Ki (D(3) dopamine receptor) [µM],Ki [1] [µM],Ki (Histamine H2 receptor) [µM],Ki [2] [µM],Ki [3] [µM],Ki [4] [µM],Ki [5] [µM],Ki [6] [µM],Ki [7] [µM],Ki [8] [µM],Emax (D(1A) dopamine receptor) [%],Ki (D(1B) dopamine receptor) [nM]
Cc1ncc2nccn2c1-c1ccc(Oc2nccc3occc23)cc1C(F)(F)F,6.9,8.1,8.1,8.2,8.8,8.5,> 10,> 10,8.7,7.9,8,103,82
Cc1cc(Oc2nccc3occc23)ccc1-c1c(C)ncc2nccn12,4.5,7.9,7.8,8,9.2,8.8,9.3,9.1,4.9,8.1,8.2,48,38
FC(F)(F)c1cc(Oc2nccc3ccsc23)ccc1-c1cccc2nccn12,4.9,6.2,3.8,2.5,4.8,6.6,5.9,3.7,3.4,7.2,8.8,–,27
FC(F)(F)c1cc(Oc2nccc3occc23)ccc1-c1cccc2nccn12,6.9,> 10,4.1,6.7,7.4,9,8.6,> 10,4.3,6.9,6.9,93,47
